Key:
[1] = target: Synaptic vesicular amine transporter (Rattus norvegicus, UniProt Q01827); type: functional
B1 bradykinin receptor = target: T1, B1 bradykinin receptor (Homo sapiens, UniProt P46663)
T1 sequence (P46663 whole entry): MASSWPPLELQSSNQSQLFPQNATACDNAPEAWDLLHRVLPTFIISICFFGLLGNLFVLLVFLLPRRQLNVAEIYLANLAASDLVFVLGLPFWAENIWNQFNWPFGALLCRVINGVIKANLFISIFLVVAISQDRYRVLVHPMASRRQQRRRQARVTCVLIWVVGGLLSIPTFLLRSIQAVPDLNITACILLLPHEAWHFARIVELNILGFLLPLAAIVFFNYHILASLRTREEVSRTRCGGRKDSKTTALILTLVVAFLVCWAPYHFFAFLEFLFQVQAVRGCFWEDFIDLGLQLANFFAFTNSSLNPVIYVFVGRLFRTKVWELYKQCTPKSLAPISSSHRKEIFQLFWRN

[2] = target: T2, Alpha-2A adrenergic receptor (Homo sapiens, UniProt P08913)
T2 sequence (P08913 whole entry): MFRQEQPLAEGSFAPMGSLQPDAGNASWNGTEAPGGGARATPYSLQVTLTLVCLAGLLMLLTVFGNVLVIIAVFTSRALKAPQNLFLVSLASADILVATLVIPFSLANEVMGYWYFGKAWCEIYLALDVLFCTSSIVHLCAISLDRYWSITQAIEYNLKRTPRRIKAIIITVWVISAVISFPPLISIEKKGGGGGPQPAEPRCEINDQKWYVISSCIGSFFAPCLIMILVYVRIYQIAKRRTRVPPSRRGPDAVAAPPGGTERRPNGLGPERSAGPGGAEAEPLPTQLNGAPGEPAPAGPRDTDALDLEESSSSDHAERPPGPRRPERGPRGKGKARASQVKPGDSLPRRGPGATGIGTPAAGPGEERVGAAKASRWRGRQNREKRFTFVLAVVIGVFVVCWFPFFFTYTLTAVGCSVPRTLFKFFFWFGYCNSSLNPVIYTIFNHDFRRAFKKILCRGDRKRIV

Histamine H2 receptor = Histamine H2 receptor (Homo sapiens, UniProt P25021)
Sequence of Histamine H2 receptor (P25021 whole entry): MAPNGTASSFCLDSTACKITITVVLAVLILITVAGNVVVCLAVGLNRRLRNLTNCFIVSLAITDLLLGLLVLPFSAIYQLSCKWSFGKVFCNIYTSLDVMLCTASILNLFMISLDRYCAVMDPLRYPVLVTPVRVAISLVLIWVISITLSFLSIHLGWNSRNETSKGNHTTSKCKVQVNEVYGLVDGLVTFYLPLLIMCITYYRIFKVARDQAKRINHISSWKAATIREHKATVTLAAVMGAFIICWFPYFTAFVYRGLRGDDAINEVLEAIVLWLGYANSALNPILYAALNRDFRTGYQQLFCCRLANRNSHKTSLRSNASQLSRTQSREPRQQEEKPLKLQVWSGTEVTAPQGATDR

[3] = target: T3, Neuropeptide Y receptor type 2 (Homo sapiens, UniProt P49146)
T3 sequence (P49146 whole entry): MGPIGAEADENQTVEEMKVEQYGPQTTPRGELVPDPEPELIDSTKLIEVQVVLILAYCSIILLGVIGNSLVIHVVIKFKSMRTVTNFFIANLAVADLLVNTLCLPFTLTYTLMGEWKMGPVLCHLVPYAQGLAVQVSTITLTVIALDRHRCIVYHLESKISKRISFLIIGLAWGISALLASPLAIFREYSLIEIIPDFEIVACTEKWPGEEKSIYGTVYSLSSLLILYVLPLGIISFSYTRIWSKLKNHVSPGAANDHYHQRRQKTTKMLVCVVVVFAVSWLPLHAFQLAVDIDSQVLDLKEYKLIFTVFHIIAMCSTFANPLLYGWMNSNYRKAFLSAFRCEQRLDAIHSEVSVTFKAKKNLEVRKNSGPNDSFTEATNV

[4] = target: T4, 5-hydroxytryptamine receptor 1A (Homo sapiens, UniProt P08908)
T4 sequence (P08908 whole entry): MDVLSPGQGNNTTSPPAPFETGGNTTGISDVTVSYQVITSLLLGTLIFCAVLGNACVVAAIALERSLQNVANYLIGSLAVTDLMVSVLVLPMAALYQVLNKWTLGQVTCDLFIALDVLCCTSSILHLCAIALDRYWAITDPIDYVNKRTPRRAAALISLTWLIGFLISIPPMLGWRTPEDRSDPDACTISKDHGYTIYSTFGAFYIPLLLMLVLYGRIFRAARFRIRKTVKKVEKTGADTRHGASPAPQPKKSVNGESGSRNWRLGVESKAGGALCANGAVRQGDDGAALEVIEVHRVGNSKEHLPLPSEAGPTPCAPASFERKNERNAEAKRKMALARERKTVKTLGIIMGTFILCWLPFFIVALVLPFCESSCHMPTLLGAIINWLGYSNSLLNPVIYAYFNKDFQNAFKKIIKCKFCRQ

D(4) dopamine receptor = target: T5, D(4) dopamine receptor (Homo sapiens, UniProt P21917)
T5 sequence (P21917 whole entry): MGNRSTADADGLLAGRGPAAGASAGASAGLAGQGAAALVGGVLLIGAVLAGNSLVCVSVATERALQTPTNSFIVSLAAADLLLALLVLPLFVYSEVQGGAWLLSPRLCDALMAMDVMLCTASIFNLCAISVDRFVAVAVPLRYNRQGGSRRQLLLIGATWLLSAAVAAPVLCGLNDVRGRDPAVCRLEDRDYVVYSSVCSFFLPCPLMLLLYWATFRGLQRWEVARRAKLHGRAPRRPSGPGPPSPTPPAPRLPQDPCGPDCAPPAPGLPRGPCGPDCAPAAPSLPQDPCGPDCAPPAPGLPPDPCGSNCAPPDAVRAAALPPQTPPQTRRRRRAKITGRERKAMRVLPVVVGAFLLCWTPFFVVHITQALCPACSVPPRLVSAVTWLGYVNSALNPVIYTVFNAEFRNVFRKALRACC

[5] = target: Gamma-aminobutyric acid receptor subunit alpha-1/alpha-2/beta-2/gamma-2 (Homo sapiens, UniProt P14867+P18507+P47869+P47870); type: functional, cell-based
Sequence of Gamma-aminobutyric acid receptor subunit alpha-1/alpha-2/beta-2/gamma-2 (P14867 whole entry): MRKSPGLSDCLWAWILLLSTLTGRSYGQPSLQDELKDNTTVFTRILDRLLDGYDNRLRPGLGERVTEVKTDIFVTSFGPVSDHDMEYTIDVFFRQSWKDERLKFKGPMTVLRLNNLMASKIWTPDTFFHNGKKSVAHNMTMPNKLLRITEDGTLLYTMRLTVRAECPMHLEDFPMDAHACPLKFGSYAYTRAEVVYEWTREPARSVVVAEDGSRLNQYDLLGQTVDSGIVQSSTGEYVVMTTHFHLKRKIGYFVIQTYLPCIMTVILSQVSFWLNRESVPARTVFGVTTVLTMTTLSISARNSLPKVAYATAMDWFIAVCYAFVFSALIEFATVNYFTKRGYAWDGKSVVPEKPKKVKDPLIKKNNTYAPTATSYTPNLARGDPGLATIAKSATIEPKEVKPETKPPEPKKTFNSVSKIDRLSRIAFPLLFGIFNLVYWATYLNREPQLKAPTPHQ
Sequence of Gamma-aminobutyric acid receptor subunit alpha-1/alpha-2/beta-2/gamma-2 (P47870 whole entry): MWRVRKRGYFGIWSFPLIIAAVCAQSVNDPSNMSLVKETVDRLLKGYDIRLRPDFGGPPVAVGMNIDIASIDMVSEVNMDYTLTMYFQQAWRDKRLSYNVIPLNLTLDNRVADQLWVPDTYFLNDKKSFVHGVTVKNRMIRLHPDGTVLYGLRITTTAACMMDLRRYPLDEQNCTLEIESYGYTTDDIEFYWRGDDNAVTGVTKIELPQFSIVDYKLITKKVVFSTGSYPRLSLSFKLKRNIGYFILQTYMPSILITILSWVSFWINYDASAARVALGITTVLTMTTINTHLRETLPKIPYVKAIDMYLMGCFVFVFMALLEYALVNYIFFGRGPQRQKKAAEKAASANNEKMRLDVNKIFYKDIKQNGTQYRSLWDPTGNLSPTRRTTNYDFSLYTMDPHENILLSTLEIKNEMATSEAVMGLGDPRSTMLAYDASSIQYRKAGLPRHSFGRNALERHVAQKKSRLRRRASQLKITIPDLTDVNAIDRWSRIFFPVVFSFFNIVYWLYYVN
Sequence of Gamma-aminobutyric acid receptor subunit alpha-1/alpha-2/beta-2/gamma-2 (P18507 whole entry): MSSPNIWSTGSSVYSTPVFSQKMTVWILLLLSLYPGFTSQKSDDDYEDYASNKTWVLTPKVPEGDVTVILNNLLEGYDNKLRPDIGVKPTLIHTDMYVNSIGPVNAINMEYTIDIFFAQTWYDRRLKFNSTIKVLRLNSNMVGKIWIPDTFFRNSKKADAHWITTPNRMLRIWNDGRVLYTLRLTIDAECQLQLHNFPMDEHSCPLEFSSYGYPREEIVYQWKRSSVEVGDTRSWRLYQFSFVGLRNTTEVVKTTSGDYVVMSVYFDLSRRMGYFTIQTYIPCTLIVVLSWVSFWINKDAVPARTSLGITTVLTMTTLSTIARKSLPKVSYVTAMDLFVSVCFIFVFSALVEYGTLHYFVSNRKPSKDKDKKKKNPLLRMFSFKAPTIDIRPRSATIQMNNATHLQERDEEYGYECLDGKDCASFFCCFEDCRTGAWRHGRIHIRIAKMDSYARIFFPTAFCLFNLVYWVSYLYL
Sequence of Gamma-aminobutyric acid receptor subunit alpha-1/alpha-2/beta-2/gamma-2 (P47869 whole entry): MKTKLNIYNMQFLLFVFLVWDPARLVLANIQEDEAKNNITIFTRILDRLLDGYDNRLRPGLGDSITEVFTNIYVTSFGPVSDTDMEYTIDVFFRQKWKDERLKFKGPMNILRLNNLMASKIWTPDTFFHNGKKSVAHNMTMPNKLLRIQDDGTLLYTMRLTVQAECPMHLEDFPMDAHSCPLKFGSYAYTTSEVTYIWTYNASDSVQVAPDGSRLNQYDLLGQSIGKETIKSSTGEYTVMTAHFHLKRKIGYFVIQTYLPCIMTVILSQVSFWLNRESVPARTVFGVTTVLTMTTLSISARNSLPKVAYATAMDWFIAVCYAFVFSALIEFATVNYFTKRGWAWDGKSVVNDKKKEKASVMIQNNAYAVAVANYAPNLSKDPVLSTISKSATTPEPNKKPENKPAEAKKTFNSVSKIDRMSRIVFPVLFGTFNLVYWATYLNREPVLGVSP

[6] = target: 5-hydroxytryptamine receptor 6 (Homo sapiens, UniProt P50406)
Sequence of 5-hydroxytryptamine receptor 6 (P50406 whole entry): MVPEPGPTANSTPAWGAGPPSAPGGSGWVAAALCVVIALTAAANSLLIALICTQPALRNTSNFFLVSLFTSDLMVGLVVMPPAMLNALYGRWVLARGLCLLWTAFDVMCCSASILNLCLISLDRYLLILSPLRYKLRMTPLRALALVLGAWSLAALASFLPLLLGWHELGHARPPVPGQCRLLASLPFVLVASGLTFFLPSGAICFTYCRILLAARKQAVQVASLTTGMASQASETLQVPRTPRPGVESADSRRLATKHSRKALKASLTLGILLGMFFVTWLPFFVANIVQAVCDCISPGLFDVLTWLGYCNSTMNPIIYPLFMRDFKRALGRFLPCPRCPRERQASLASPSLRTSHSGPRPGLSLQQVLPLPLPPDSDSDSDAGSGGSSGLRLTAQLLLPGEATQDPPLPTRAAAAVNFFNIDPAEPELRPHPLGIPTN
Further: assay procedure not described here.

Sequence of Synaptic vesicular amine transporter (Q01827 whole entry): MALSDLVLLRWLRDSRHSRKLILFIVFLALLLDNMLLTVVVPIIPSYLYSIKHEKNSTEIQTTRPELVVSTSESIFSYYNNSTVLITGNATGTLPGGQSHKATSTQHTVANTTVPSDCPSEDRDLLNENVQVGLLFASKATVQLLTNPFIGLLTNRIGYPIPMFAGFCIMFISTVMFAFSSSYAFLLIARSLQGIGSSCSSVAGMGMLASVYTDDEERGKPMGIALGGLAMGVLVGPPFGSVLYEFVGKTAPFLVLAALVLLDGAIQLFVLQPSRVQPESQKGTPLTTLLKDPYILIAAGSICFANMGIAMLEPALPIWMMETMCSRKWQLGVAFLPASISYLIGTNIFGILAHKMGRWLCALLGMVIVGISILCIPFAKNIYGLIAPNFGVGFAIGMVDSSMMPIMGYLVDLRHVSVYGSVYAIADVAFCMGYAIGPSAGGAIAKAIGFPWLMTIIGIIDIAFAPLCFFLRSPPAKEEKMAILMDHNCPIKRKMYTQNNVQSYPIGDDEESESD

Structure (SMILES): O=C1c2c(O)c(=O)ccn2N([C@@H]2c3ccccc3SCc3c2ccc(F)c3F)[C@@H]2COCCN12 [BALOXAVIR]
- AC50 [1]: 22 µM

Structure (SMILES): O=C(COc1ccc(Cl)cc1)N1CCN(Cc2ccc3c(c2)OCO3)CC1 [FIPEXIDE]
- AC50 [1]: 0.15 µM

Structure (SMILES): CS(=O)(=O)c1ccc([C@@H](O)[C@@H](CO)NC(=O)C(Cl)Cl)cc1 [THIAMPHENICOL]
- AC50 [1]: > 30 µM

Structure (SMILES): CN(CCOc1ccc(NS(C)(=O)=O)cc1)CCc1ccc(NS(C)(=O)=O)cc1 [DOFETILIDE]
- AC50 (B1 bradykinin receptor): > 30 µM
- AC50 [2]: > 10 µM
- AC50 (Histamine H2 receptor): > 10 µM
- AC50 [1]: 1.7 µM
- AC50 [3]: > 30 µM
- AC50 [4]: > 10 µM
- AC50 (D(4) dopamine receptor): > 10 µM

Structure (SMILES): CCOC(=O)c1ccc(O)cc1 [ETHYLPARABEN]
- AC50 [1]: 22 µM

Structure (SMILES): O=C(CCCCCCC(=O)Nc1ccccc1)NO [VORINOSTAT]
- AC50 [5]: > 30 µM
- AC50 [6]: > 10 µM
- AC50 (B1 bradykinin receptor): > 10 µM
- AC50 [2]: > 10 µM
- AC50 (Histamine H2 receptor): > 10 µM
- AC50 [3]: > 10 µM
- AC50 [4]: > 10 µM
- AC50 (D(4) dopamine receptor): > 10 µM

Structure (SMILES): CCC[C@@H]1C[C@@H](C(=O)N[C@@H]([C@H]2O[C@H](SC)[C@H](O)[C@@H](O)[C@H]2O)[C@H](C)Cl)N(C)C1 [CLINDAMYCIN]
- AC50 (B1 bradykinin receptor): > 30 µM
- AC50 [2]: > 10 µM
- AC50 (Histamine H2 receptor): > 10 µM
- AC50 [1]: > 30 µM
- AC50 [3]: > 30 µM
- AC50 [4]: > 10 µM
- AC50 (D(4) dopamine receptor): > 10 µM

Structure (SMILES): C[C@H]1O[C@H](O[C@H]2[C@H](O)[C@@H](O)[C@@H](O[C@H]3[C@H](O)[C@@H](O)C(O)O[C@@H]3CO)O[C@@H]2CO)[C@H](O)[C@@H](O)[C@@H]1N[C@H]1C=C(CO)[C@@H](O)[C@H](O)[C@H]1O (stereo not given in full) [ACARBOSE]
- AC50 [6]: > 10 µM
- AC50 (B1 bradykinin receptor): > 30 µM
- AC50 [2]: > 10 µM
- AC50 (Histamine H2 receptor): > 10 µM
- AC50 [3]: > 30 µM
- AC50 [4]: > 10 µM
- AC50 (D(4) dopamine receptor): > 10 µM

Structure (SMILES): CCc1ccc(CCOc2ccc(CC3SC(=O)NC3=O)cc2)nc1 (stereo not given) [PIOGLITAZONE]
- AC50 [6]: > 10 µM
- AC50 (B1 bradykinin receptor): > 30 µM
- AC50 [2]: 7.05 µM
- AC50 (Histamine H2 receptor): > 10 µM
- AC50 [3]: > 30 µM
- AC50 [4]: > 10 µM
- AC50 (D(4) dopamine receptor): > 10 µM

Structure (SMILES): NC(N)=Nc1nc(CSCCC(N)=NS(N)(=O)=O)cs1 [FAMOTIDINE]
- AC50 [6]: > 10 µM
- AC50 (B1 bradykinin receptor): > 30 µM
- AC50 [2]: > 10 µM
- AC50 (Histamine H2 receptor): 0.0063 µM
- AC50 [3]: > 30 µM
- AC50 [4]: > 10 µM
- AC50 (D(4) dopamine receptor): > 10 µM

Structure (SMILES): NC(=O)c1cnccn1 [PYRAZINAMIDE]
- AC50 [6]: > 10 µM
- AC50 (B1 bradykinin receptor): > 30 µM
- AC50 [2]: > 10 µM
- AC50 (Histamine H2 receptor): > 10 µM
- AC50 [3]: > 30 µM
- AC50 [4]: > 10 µM
- AC50 (D(4) dopamine receptor): > 10 µM

Structure (SMILES): CC(C)OC(=O)[C@H](C)N[P@](=O)(OC[C@H]1O[C@@H](n2ccc(=O)[nH]c2=O)[C@](C)(F)[C@@H]1O)Oc1ccccc1 [SOFOSBUVIR]
- AC50 [1]: > 30 µM

Structure (SMILES): CC(=O)OC[C@H]1O[C@@H](n2ccc(=O)[nH]c2=O)[C@H](OC(C)=O)[C@@H]1OC(C)=O [URIDINE TRIACETATE]
- AC50 [1]: > 30 µM

Structure (SMILES): CCOC(=O)N[C@@H]1CC[C@@H]2[C@@H](C1)C[C@H]1C(=O)O[C@H](C)[C@H]1[C@H]2/C=C/c1ccc(-c2cccc(F)c2)cn1 [VORAPAXAR]
- AC50 [1]: 1.3 µM

Structure (SMILES): CC(O)CO (stereo not given) [PROPYLENE GLYCOL]
- AC50 [1]: > 30 µM

Structure (SMILES): OC[C@@H](O)[C@@H](O)[C@H](O)[C@H](O)CO [MANNITOL]
- AC50 [1]: > 30 µM

Structure (SMILES): CN1C(=O)CC(C)(c2ccccc2)C1=O (stereo not given) [METHSUXIMIDE]
- AC50 [1]: > 30 µM
